Series [1] has as its target T1, recombinant human CYP11B2 (Homo sapiens, UniProt P19099).
T1 construct: made in house; host or cells: V79-4 cells (enzyme enriched microsomal fraction of cell lysates)
T1 sequence (P19099 25-503): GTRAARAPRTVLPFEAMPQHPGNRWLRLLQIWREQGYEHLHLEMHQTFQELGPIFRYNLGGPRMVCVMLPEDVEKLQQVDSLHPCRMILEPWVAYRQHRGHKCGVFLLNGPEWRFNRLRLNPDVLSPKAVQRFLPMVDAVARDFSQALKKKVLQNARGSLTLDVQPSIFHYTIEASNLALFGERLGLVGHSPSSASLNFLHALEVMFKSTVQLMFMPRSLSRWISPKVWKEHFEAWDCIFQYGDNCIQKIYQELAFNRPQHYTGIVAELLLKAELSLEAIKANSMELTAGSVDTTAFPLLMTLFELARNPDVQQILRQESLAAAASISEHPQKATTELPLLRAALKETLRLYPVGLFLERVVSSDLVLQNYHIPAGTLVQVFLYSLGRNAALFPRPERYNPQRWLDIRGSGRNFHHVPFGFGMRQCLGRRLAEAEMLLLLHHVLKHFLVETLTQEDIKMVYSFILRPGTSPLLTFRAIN
In words: CYP11B2 enzyme assay, enzyme enriched microsomes from V79-4 cells, aldosterone by LC-MS. It is filed as biochemical. The conditions noted are these: for Selectivity: CYP11B1 IC50/CYP11B2 IC50.
Procedure: (§1) An enzyme enriched microsomal fraction was prepared from cellular lysates and subsequently used as the enzyme source for determining inhibitor IC50s. […] Enzyme assays for inhibitor screening employed CYP11B2 and CYP11B1 enzyme enriched microsomes and were run at the Km of the respective substrates. Products of the enzyme reactions, aldosterone for CYP11B2 or cortisol for CYP11B1, were measured by LC-MS. Assays were run under conditions of less than 20% substrate turnover. Inhibitor IC50s were generated by determining the product formation in the absence or presence of inhibitor at various concentrations. In the absence of the test compound, the product formed (Pt) in each data set was defined as 100% activity. In the absence of enzyme, the product formed (Pb) in each data set was defined as 0% activity. The percent activity in the presence of each inhibitor was calculated according to the following equation: % activity=(P−Pb)/(Pt−Pb), where P=the product formed in the presence of the inhibitor.

The nature of series [2]: Rat liver microsome stability. Type of series: in vitro ADME. As to conditions: for Rat LM Stability: % Compound remaining at 65 min in rat liver microsomes. A general note: Liver microsomes are a subcellular fraction often used to study metabolism.
The nature of series [3]: Cyno liver microsome stability. It is filed as in vitro ADME, cynomolgus monkey. As to conditions: for Cyno LM Stability: % Compound remaining at 65 min in cyno liver microsomes; for metabolic stability when exposed to cynomolgus monkey liver microsomes: compared with pyridine counterpart Example 76.
The target of series [4] is T2, recombinant human CYP11B1 (Homo sapiens, UniProt P15538).
T2 construct: made in house; host or cells: V79-4 cells (enzyme enriched microsomal fraction of cell lysates)
T2 sequence (P15538 25-503): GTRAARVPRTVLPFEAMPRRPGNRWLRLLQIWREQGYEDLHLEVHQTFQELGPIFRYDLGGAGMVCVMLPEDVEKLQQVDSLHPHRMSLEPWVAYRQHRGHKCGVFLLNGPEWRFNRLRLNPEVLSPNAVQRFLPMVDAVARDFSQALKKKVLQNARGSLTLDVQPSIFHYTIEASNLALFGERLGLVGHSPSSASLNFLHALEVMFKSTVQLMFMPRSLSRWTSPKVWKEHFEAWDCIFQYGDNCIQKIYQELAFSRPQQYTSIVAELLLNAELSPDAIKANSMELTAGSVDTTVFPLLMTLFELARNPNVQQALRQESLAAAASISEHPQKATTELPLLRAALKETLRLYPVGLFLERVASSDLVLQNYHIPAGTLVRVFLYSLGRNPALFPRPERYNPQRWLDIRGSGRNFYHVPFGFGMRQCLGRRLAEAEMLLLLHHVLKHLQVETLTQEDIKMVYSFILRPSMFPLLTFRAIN
In words: CYP11B1 enzyme assay, enzyme enriched microsomes from V79-4 cells, cortisol by LC-MS. It is filed as biochemical.
Procedure: as §1

The nature of series [5]: Cyno half life after PO dose. More on the design: species or system cynomolgus monkeys. As to conditions: cynomolgus monkey; for half-life: in vivo, 1 mg/kg PO dose, read-out: Cyno T½ (converted).
Setting [6] is: IC50 ranges, run at Km of 11-deoxycorticosterone, read-out: hCYP11B2 IC50.
Where [7] appears, read: Table 3 comparison, read-out: CYP11B2 IC50.
Setting [8] is: IC50 ranges, run at Km of 11-deoxycortisol, read-out: hCYP11B1 IC50.
[9] abbreviates: Table 3 comparison, read-out: CYP11B1 IC50.

Where two headings read alike, the source gives them in different places.

As a reminder, the IC50 is the concentration that inhibits the measured activity by half.

As for `Fc1ccc2nc(-c3cncnc3)n(C3CC3)c2c1` [Example 1, 1-Cyclopropyl-6-fluoro-2-(pyrimidin-5-yl)-1H-benzo[d]imidazole], the Selectivity in series [1] is given as 134. Also, the IC50 is 1 to 100 nM in series [1] (setting [6]), 40 nM in series [1] (setting [7]), 1000 to 10000 nM in series [4] (setting [8]) and 5380 nM in series [4] (setting [9]). Besides, the “Rat LM Stability” value in series [2] is recorded as 0%. Moreover, the “Cyno LM Stability” value in series [3] is 70%.

Turning to `Cc1ncncc1-c1nc2cc(F)c(F)cc2n1C1CC1` [Example 44, 1-Cyclopropyl-5,6-difluoro-2-(4-methylpyrimidin-5-yl)-1H-benzo[d]imidazole], the Selectivity in series [1] came out at 244. Further, the half-inhibitory concentration (IC50) in series [1] (setting [6]) is 1 to 100 nM; in series [1] (setting [7]), 17 nM; in series [4] (setting [8]) it was 1000 to 10000 nM; in series [4] (setting [9]), 4160 nM. Further, the “Rat LM Stability” value in series [2] is 96%. The “Cyno LM Stability” value in series [3] stood at 72%.

For the molecule `Fc1cc2nc(-c3cncnc3C(F)(F)F)n(C3CC3)c2cc1F` [Example 30, 1-Cyclopropyl-5,6-difluoro-2-(4-(trifluoromethyl)pyrimidin-5-yl)-1H-benzo[d]imidazole], the Selectivity in series [1] is given as 199. In addition, the IC50 was 1 to 100 nM in series [1] (setting [6]), 32 nM in series [1] (setting [7]), 1000 to 10000 nM in series [4] (setting [8]) and 6370 nM in series [4] (setting [9]). Besides, in series [5], the “in vivo half-lives in cynomolgus monkeys” value is on record as “long in vivo half-lives”. The half-life in series [5] is 37.5 h. Moreover, the “Rat LM Stability” value in series [2] came out at 108%. Besides, the “metabolic stability when exposed to rat liver microsomes” value in series [2] (compared with pyridine counterpart Example 76) was “much greater metabolic stability”. For the same molecule, the “Cyno LM Stability” value in series [3] worked out at 99%. For the same molecule, in series [3], the “metabolic stability when exposed to cynomolgus monkey liver microsomes” value is recorded as “much greater metabolic stability”.

Regarding `Fc1cc2nc(-c3cncnc3C(F)F)n(C3CC3)c2cc1F` [Example 27, 1-Cyclopropyl-2-(4-(difluoromethyl)pyrimidin-5-yl)-5,6-difluoro-1H-benzo[d]imidazole], the half-maximal inhibitory concentration (IC50) in series [1] (setting [6]) is 1 to 100 nM; in series [1] (setting [7]), 17 nM; in series [4] (setting [8]) it was 1000 to 10000 nM; in series [4] (setting [9]) it was 4720 nM. In series [5], the “in vivo half-lives in cynomolgus monkeys” value is on record as “long in vivo half-lives”. Further, in series [5], the half-life was 16.9 h. Moreover, the “Cyno LM Stability” value in series [3] is recorded as 106%. Moreover, the “metabolic stability when exposed to cynomolgus monkey liver microsomes” value in series [3] was “much greater metabolic stability”.

Regarding `CCn1c(-c2cncnc2C)nc2ccc(C#N)cc21` [Example 18, 1-Ethyl-2-(4-methylpyrimidin-5-yl)-1H-benzo[d]imidazole-6-carbonitrile], the figures for the IC50 in series [1] (setting [6]) and in series [4] (setting [8]) were 1 to 100 nM and 1000 to 10000 nM, respectively.

For the molecule `CS(=O)(=O)c1ccc2nc(-c3cncnc3)n(C3CC3)c2c1` [Example 26, 1-Cyclopropyl-6-(methylsulfonyl)-2-(pyrimidin-5-yl)-1H-benzo[d]imidazole], the results for the IC50 in series [1] (setting [6]) and in series [4] (setting [8]) were 1000 to 10000 nM and greater than 10000 nM, respectively.

Turning to `CCn1c(-c2cncnc2C(F)(F)F)nc2cc(F)c(F)cc21` [Example 67, 1-Ethyl-5,6-difluoro-2-(4-(trifluoromethyl)pyrimidin-5-yl)-1H-benzo[d]imidazole], the IC50 in series [1] (setting [6]) is 100 to 1000 nM; in series [4] (setting [8]) it was greater than 10000 nM.

For `CCn1c(-c2cncnc2C(F)(F)F)nc2ccc(C#N)nc21` [Example 69, 3-ethyl-2-(4-(trifluoromethyl)pyrimidin-5-yl)-3H-imidazo[4,5-b]pyridine-5-carbonitrile], the concentration for half-maximal inhibition (IC50) was 100 to 1000 nM in series [1] (setting [6]) and greater than 10000 nM in series [4] (setting [8]).

As for `CC(C)c1ncncc1-c1nc2ccc(F)cc2n1C1CC1` [Example 13, 1-Cyclopropyl-6-fluoro-2-(4-isopropylpyrimidin-5-yl)-1H-benzo[d]imidazole], the concentration for half-maximal inhibition (IC50) lay within 1 to 100 nM in series [1] (setting [6]) and 1000 to 10000 nM in series [4] (setting [8]).

Regarding `COc1ccc2nc(-c3cncnc3)n(C3CC3)c2c1` [Example 25, 1-Cyclopropyl-6-methoxy-2-(pyrimidin-5-yl)-1H-benzo[d]imidazole], the values for the IC50 in series [1] (setting [6]) and in series [4] (setting [8]) were 100 to 1000 nM and greater than 10000 nM, respectively.

Values taken from patent US11919883B2, “Metalloenzyme inhibitor compounds” (Ji Xing Pharmaceuticals Hong Kong Limited, priority 2016, dated 2024).
